CNC(=O)c1cc(Oc2ccc(NC(=O)Nc3ccc(Cl)c(C(F)(F)F)c3)c(F)c2)ccn1
solubility (mole fraction)
Settings	278.15 K	283.15 K	288.15 K	293.15 K	298.15 K	303.15 K	308.15 K	313.15 K
in acetone	0.0014	0.00173	0.00199	0.00247	0.00323	0.00375	0.00443	0.00526
in acetonitrile	0.00014	0.000162	0.000168	0.000203	0.000248	0.000299	0.000381	0.000492
in ethanol	0.000641	0.000677	0.000739	0.000865	0.000911	0.0011	0.00126	0.00145
in isopropanol	0.000657	0.000679	0.000698	0.000769	0.000918	0.00109	0.00137	0.00161
in methanol	0.000315	0.000351	0.00041	0.000422	0.000475	0.000581	0.000689	0.000797
in n-propanol	0.000701	0.000769	0.000814	0.000908	0.00099	0.0012	0.00147	0.00172

Source: BigSolDB 2.1
